# Laboratory results published in patent US20220402903A1, “ISOXAZOLINE COMPOUND WITH OPTICAL ACTIVITY AND USE” (SHENYANG SINOCHEM AGROCHEMICALS R&D CO., LTD., priority 2019, published 2022).
# Experiments:
# Experiment in all cases: Greenhouse herbicidal activity, post-emergence stem and leaf spray
# Format in all cases: in vivo
# Setaria viridis = conditions: for Control effect on Setaria viridis: post-emergence, visual, 0 = no control effect, 100% = weeds completely killed
# Text: (§1) The test method of the herbicidal activity of the compound in the present invention is as follows:
# (§2) Quantitative grass weed (Echinochloa crusgalli and Setaria viridis) and broad-leaved weed (Abutilon theophrasti and Zinnia elegans) seeds were sown in paper cups having a diameter of 7 cm and containing nutrient soil, after sowing, the seeds were covered with 1 cm of soil, the soil was pressed and watered, and then the seeds were cultivated in a greenhouse according to a conventional method. The grass weeds grew to 2-3 leaf stages, the broad-leaved weeds grew to 2-4 leaf stages, stem and leaves were sprayed. Before emergence, the soil was sprayed within 24 hours after sowing. According to the design dose of the test, spray treatment was carried out on a track-type crop sprayer (designed and produced by British Engineer Research Ltd.) (spray pressure is 1.95 kg/cm^2, spray volume is 500 L/hm^2 and track speed is 1.48 km/h). The test was repeated for three times. The test material was treated and then placed in an operation hall. The medicinal liquid was naturally dried in the shade, and then was placed in a greenhouse and managed according to the conventional method. The response of the weeds to the test compound was observed and recorded. After treatment, the control effects of the test compound on the weeds were visually inspected regularly.
# (§3) The grading standards of the control effects: 0 represents no control effect and 100% represents that the weeds are completely killed or greatly controlled.
# Abutilon theophrasti = conditions: for Control effect on Abutilon theophrasti: post-emergence, dose 4 g a.i./hm^2, visual, 0 = no control effect, 100% = weeds completely killed
# Text: as §1, §2, §3
# Zinnia elegans = conditions: for Control effect on Zinnia elegans: post-emergence, dose 4 g a.i./hm^2, visual, 0 = no control effect, 100% = weeds completely killed
# Text: as §1, §2, §3
# Echinochloa crusgalli = conditions: for Control effect on Echinochloa crusgalli: post-emergence, visual, 0 = no control effect, 100% = weeds completely killed
# Text: as §1, §2, §3
# [1] = post-emergence treatment, dose 4-8 g a.i./hm^2
Structure (SMILES),Control effect on Setaria viridis (Setaria viridis; dose 4 g a.i./hm^2),Control effect on Setaria viridis (Setaria viridis; dose 8 g a.i./hm^2),Control effect on Abutilon theophrasti (Abutilon theophrasti),Control effect on Zinnia elegans (Zinnia elegans),Control effect on Echinochloa crusgalli (Echinochloa crusgalli; dose 4 g a.i./hm^2),Control effect on Echinochloa crusgalli (Echinochloa crusgalli; dose 8 g a.i./hm^2),Herbicidal activity on Setaria viridi (in words) (Setaria viridis; [1]),Herbicidal activity on Abutilon theophrasti (in words) (Abutilon theophrasti; [1]),Herbicidal activity on Zinnia elegans (in words) (Zinnia elegans; [1]),Herbicidal activity on Echinochloa crusgalli (in words) (Echinochloa crusgalli; [1])
"CCOC(=O)C1(C)CC(c2cc(-n3c(=O)cc(C(F)(F)F)n(C)c3=O)c(F)cc2Cl)=NO1 (stereo not shown) [CN105753853 Compound 6, reference compound]",25%,55%,60%,90%,45%,50%,,,,
CCOC(=O)[C@]1(C)CC(c2cc(-n3c(=O)cc(C(F)(F)F)n(C)c3=O)c(F)cc2Cl)=NO1 [Compound 3],75%,85%,90%,100%,90%,98%,high herbicidal activity,high herbicidal activity,high herbicidal activity,high herbicidal activity
